Data as given in patent US7838542B2, “Bicyclic compositions and methods for modulating a kinase cascade” (Kinex Pharmaceuticals, LLC, priority 2006, dated 2010).
“Also recorded” adds a separate entry of the source. Numbered stars: 1 amine (or outer) side, 2 acyl side, 3 side chain; on linkers, the order of the positions; unused ones are H or OH. Square brackets hold non-standard residues; d marks the D form. Peptide text beside a SMILES is read from it. X2 = O=C([C@H](CNS(=O)(=O)O)N[*:1])[*:2]; X3 = O=C([C@H](CB(O)O)N[*:1])[*:2]

Legend:
pp60^c-src = pp60^c-src (Homo sapiens, UniProt P12931); experiment: Src inhibition (RR-SRC phosphorylation), Cellular Mimetic assay; conditions: for % Inhibition of 2 mM RR-src at Inhibitor Concentration (1 mM): inhibitor 1 mM; for % Inhibition of 2 mM RR-src at Inhibitor Concentration (100 μM): inhibitor 100 μM; for mode of inhibition with respect to ATP: IC50 or % inhibition monitored at ATP increased up to 1 mM
Sequence of pp60^c-src (P12931 whole entry): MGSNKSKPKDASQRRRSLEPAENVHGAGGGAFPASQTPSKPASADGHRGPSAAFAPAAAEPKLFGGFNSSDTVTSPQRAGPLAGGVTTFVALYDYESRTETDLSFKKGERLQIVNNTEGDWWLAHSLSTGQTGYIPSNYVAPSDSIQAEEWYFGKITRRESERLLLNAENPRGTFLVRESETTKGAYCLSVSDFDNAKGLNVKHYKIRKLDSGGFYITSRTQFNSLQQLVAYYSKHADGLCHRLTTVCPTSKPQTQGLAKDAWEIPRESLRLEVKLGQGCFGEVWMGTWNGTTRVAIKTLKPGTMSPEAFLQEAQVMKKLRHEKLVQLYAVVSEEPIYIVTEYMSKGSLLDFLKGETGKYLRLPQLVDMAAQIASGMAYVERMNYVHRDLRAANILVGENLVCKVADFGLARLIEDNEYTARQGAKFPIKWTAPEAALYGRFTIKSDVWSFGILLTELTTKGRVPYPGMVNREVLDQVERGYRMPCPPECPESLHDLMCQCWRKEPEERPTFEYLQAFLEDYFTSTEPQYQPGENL

PKA [1] = biological target: T1, PKA (Homo sapiens, UniProt P17612); experiment: PKA inhibition, Literature Mimetic assay; format: biochemical; conditions: Literature Mimetic assay conditions
Text: (§1) The boronic acid inhibitors 21-24 have two Arg's in their sequence also and therefore will bind to the phosphocellulose paper in addition to Kemptamide (although not as consistently or completely due to one less positive charge). Consequently, when analyzed as inhibitors, the amount of phosphorylated Kemptamide produced was not only counted, but also the amount of phosphorylated inhibitor simultaneously produced (e.g. see 26 below). The net result is that distorted IC50 curves are obtained which show net “stimulation” at higher inhibitor concentrations in some cases. […] The underlying substrate behavior of these “inhibitors” makes an accurate measurement of their inhibition potency impossible with the current assay. However, it does appear from the data that homologating the boronic acid functionality out with only CH2 groups (homologations with boronic acid non-peptide Src inhibitors may also be carried out) decreases the binding affinity and ability to function as a substrate.

PKA [2] = biological target: T1, PKA; experiment: PKA inhibition, Cellular Mimetic assay; format: biochemical; conditions: Cellular Mimetic assay conditions
Text: as §1

PKA [3] = biological target: T1, PKA; experiment: STAIRe method: form of the protein kinase the inhibitor binds best to; format: biochemical
Text: This was a somewhat surprising result since these inhibitors are analogs of the “end product inhibitors” 1 and 12 which must bind simultaneously with MgADP just following phosphate transfer in the generally accepted reaction mechanism for protein kinases.

[4] = test system: normal rat kidney (NRK) cells; experiment: NRK non-transformed cell growth; format: cell-based
Procedure: (§2) Active Src inhibitors can be studied in a set of side-by-side cell-based assays using normal rat kidney (NRK) cells and a temperature-sensitive pp60^v-Src transformant of this cell line (LA25). The LA25 transformant engages in anchorage- and serum-independent growth at the “permissive” temperature of 33° C. due to activation of pp60^v-src but not at the “non-permissive” temperature of 40° C. at which pp60^v-src is not activated (Li et al., 1996). The use of this pair of closely related cell lines for testing the Src inhibitors at both the permissive and non-permissive temperatures allows one to determine if a given Src inhibitor is blocking cell growth due to specific blockade of the Src signaling pathway, by a different mechanism or by a general cytotoxic effect.
(§3) As shown in this graph the growth of the LA25 cells at the permissive temperature of 33° C. is inhibited by ca. 50% at a 25 μM concentration of 43-meta relative to the LA25 cell growth at the non-permissive 40° C. as a control. […] Since the 43-meta solutions were prepared with a low concentration of DMSO for solubilization, a DMSO control was also run at the same concentration.

[5] = test system: LA25 cells (temperature-sensitive pp60^v-Src transformant of NRK); experiment: LA25 cell growth at permissive and non-permissive temperature; format: cell-based, rat
Procedure: as §2, §3

SCID mice = conditions: mouse, in vivo, ip
Procedure: These compounds were administered to SCID mice by intraperitoneal administration in tween80:EtOH.

DU-145 = experiment: NIH 60-tumor cell panel assay, DU-145; format: cell-based; conditions: read-out: growth inhibition IC50, DU-145
PC-3 = experiment: NIH 60-tumor cell panel assay, PC-3; format: cell-based; conditions: read-out: growth inhibition IC50, PC-3
Text: The initial non-peptide Src inhibitors have also shown very encouraging results in four different series of cell culture assays. 1) In the NIH 60-tumor cell panel assay, broad activity (as one would expect for a Src inhibitor) was seen against the tumor cell lines, including the prostate lines. […] 3) The Src inhibitors were compared to the cancer drugs etoposide, taxol, doxorubicin and cisplatin in ovarian tumors from three different patients and an abdominal carcinoma from another patient. […] 5) Two of the Src inhibitors were also tested for inhibition of ts v-Src stimulated LA25 cell growth. […] 6) Two of the Src inhibitors were also tested for inhibition of normal rat kidney cell growth.

O=P(O)(O)c1cccc2ccccc12 [Compound 33]
% Inhibition of 2 mM RR-src at Inhibitor Concentration (1 mM) (pp60^c-src; Table IV): 1 (1 mM) %

O=C(NCc1cccc(F)c1)c1cc2cc(F)ccc2[nH]1 [Compound 1z]
melting point: 239 to 241 °C

CC[C@H](C)[C@H](NC(=O)[C@H](CNS(=O)(=O)O)NC(=O)CNC(=O)[C@H](CCCNC(=N)N)NC(=O)[C@H](CCCNC(=N)N)NC(C)=O)C(N)=O [Compound 8] (Ac-RRG[X2]I-NH2)
times tighter binding than end product phosphate inhibitor 1 (PKA [1]): 31 × | times tighter binding than end product phosphate inhibitor 1 (PKA [2]): 108 × | nucleotide form of the kinase bound best (STAIRe) (PKA [3]): bind best when MgATP (not MgADP or no nucleotide) is also bound

OB(O)c1cccc2ccccc12 [Compound 32]
% Inhibition of 2 mM RR-src at Inhibitor Concentration (100 μM) (pp60^c-src; Table IV): 0 (100 μM) %

OB(O)c1cc2ccccc2s1 [Compound 36]
% Inhibition of 2 mM RR-src at Inhibitor Concentration (100 μM) (pp60^c-src; Table IV): 12 (100 μM) %

OB(O)c1ccc2ccccc2c1 [Compound 27, 2-naphthalene boronic acid]
mode of inhibition with respect to ATP (pp60^c-src): not ATP-competitive inhibitors; also recorded: NON-ATP COMPETITIVE

O=C(Nc1cccc(O)c1)c1cc2cccc(O)c2cc1O [Compound 45]
normal growth of the parent non-transformed cells [4]: without inhibiting the normal growth of the parent non-transformed cells | v-Src induced (Src stimulated) LA25 cell growth [5]: specifically blocked the v-Src induced cell growth

O=C(Nc1cccc(O)c1)c1cc2ccc(O)cc2cc1O [Compound 3]
IC50 (pp60^c-src; Table X): 16 µM

OB(O)c1cc2ccccc2o1 [Compound 35]
% Inhibition of 2 mM RR-src at Inhibitor Concentration (100 μM) (pp60^c-src; Table IV): 10 (100 μM) %

O=S(=O)(O)Nc1ccc2ccccc2c1 [Compound 28]
mode of inhibition with respect to ATP (pp60^c-src): not ATP-competitive inhibitors; also recorded: NON-ATP COMPETITIVE | IC50 (pp60^c-src; Table IV): 1600 µM | Ki (pp60^c-src; Table IV): 963 µM | % Inhibition of 2 mM RR-src at Inhibitor Concentration (1 mM) (pp60^c-src; Table IV): 31%

O=C(NCc1cccc(O)c1)c1cc2cc(F)ccc2[nH]1 [Compound 1a]
toxicity in MTD study (weight loss) (SCID mice): less toxic in mice than compound 2k

O=C(NCc1cccc(O)c1)c1cc2cc(O)ccc2[nH]1 [Compound 49-meta]
IC50 (DU-145): > 100 µM | IC50 (PC-3): 39 µM

NS(=O)(=O)c1cccc2ccccc12 [Compound 34]
% Inhibition of 2 mM RR-src at Inhibitor Concentration (100 μM) (pp60^c-src; Table IV): 0 (100 μM) %

NS(=O)(=O)c1ccc2ccccc2c1 [Compound 31]
% Inhibition of 2 mM RR-src at Inhibitor Concentration (100 μM) (pp60^c-src; Table IV): 0 (100 μM) %

O=S(=O)(O)c1ccc2ccccc2c1 [Compound 29]
% Inhibition of 2 mM RR-src at Inhibitor Concentration (1 mM) (pp60^c-src; Table IV): 0 (1 mM) %

CC[C@H](C)[C@H](NC(=O)[C@H](CB(O)O)NC(=O)CNC(=O)[C@H](CCCNC(=N)N)NC(=O)[C@H](CCCNC(=N)N)NC(C)=O)C(N)=O [Compound 21] (Ac-RRG[X3]I-NH2)
inhibition at 100 µM (pp60^c-src; read-out: % Inhibition at 100 μM (std. dev.), inhibitor 100 μM, Table IX): 14%

O=C(Nc1cccc(O)c1)c1cc2ccc(O)cc2cc1O [Compound 43-meta]
normal growth of the parent non-transformed cells [4]: without inhibiting the normal growth of the parent non-transformed cells | cell toxicity ([4]; up to 400 μM, NRK cells, LA25 cells at 40° C. and at 33° C.): lack of cell toxicity | v-Src induced (Src stimulated) LA25 cell growth [5]: specifically blocked the v-Src induced cell growth | inhibition at 25 µM ([5]; Rattus norvegicus, read-out: inhibition of growth of LA25 cells at the permissive temperature of 33° C., 25 μM, relative to LA25 growth at non-permissive 40° C.): ~50%
